The values that follow come from patent publication US8877746B2, “Compositions for delivery of insoluble agents” (Cardioklne, Inc, priority 2009, dated 2014).

In brackets after ≈: the same amount, converted by molar mass.

Series [1] can be described thus: Solubility in 1.5% SDS at 25° C. The series is classed as physicochemical.
The nature of series [2]: Solubility of lixivaptan in water. It is filed as physicochemical. How it is done: Lixivaptan is very poorly soluble in water (less than 20 ng/mL). Salt formation (a frequently used approach to increase aqueous solubility) was not possible. The bioavailability of lixivaptan can be extremely low in conventional dosage forms (i.e., when blended with excipients and compressed into tablets or filled into capsules).

Regarding `Cc1ccc(F)cc1C(=O)Nc1ccc(C(=O)N2Cc3cccn3Cc3ccccc32)c(Cl)c1` [Lixivaptan, 5-fluoro-2-methyl-N-[4-(5H-pyrrolo[2,1-c]-[1,4]-benzodiazepin-10(11H)-ylcarbonyl)-3-chlorophenyl]benzamide], in series [1] (1 h), the “Solubility (mg/mL in 1.5% SDS, 25° C.) 1 h” value is 0.019 mg/mL (≈ 40.1 µM). Moreover, the solubility at 24 h in series [1] (aqueous with cosolvent or surfactant or cyclodextrin, 24 h, read-out: Solubility (mg/mL in 1.5% SDS, 25° C.) 24 h) turned out to be 0.024 mg/mL (≈ 50.6 µM). The molecule also displayed a solubility in series [2] below 0.02 µg/mL.
